Assays:
[1] = system: polyclonal antibodies in mouse sera raised against original PCSK9 sequence (aa 153-162 or aa 153-165); assay: Competition ELISA: mimotope competes with the original PCSK9 sequence for binding of polyclonal antibodies in mouse sera; settings: 20 μg peptide incubated with sera; irrelevant peptide = 0% competition
Source text: FIGS. 2A and 2B show the ability of PCSK9 mimotopes to compete with the original PCSK9 sequence (aa 153-162 or aa 153-165) for binding polyclonal antibodies in mouse sera raised specifically against the latter.
All mimotopes are compared to the negative group (0% competition by an irrelevant peptide). As a positive control for each competition ELISA the original PCSK9 sequences were used (aa 153-162 or aa 153-165).
The graphs display the ability (in percent) of the mimotopes to compete with the original PCSK9 sequence (aa 153-162 or aa 153-165) for binding polyclonal antibodies raised against the latter.
20 μg of each indicated peptide was incubated with sera from mice injected with original PCSK9 sequence (aa 153-162 or aa 153-165: SEQ ID No. 2). Sera were then incubated on ELISA plates coated with the original PCSK9 sequence (aa 153-162 or aa 153-165: SEQ ID No. 2). Detection was performed with anti-mouse IgG antibodies, ABTS was used as a chromogenic substrate and optical density (OD) was measured at 405 nm.
Mimotopes diminishing >20% subsequent binding of the polyclonal antibodies from the sera to the original human PCSK9 epitope (aa 153-162 or 153-165: SEQ ID No. 3) coated on the ELISA plates were considered as competing mimotopes and as good candidates.

[2] = system: polyclonal antibodies specific for human PCSK9 aa 153-162 or aa 153-165; assay: Binding ELISA: mimotopes coated on plates, detected by mouse sera raised against the original PCSK9 sequence; settings: mimotope coated at 1 μmol/mL; titer = serum dilution where 50% of ODmax is reached
Source text: FIGS. 1A and 1B show detection of PCSK9 mimotopes sequences by mouse sera containing polyclonal antibodies specific for human PCSK9 aa 153-162 or aa 153-165
The graphs display median titers from all mimotopes compared to the irrelevant negative control. As a positive control the original human PCSK9 sequence is included: aa 153-162 or aa 153-165. Mimotopes with values over 1:50.000 are considered as good candidates.
Mimotopes were coated on ELISA plates at a concentration of 1 μmol/mL. After blocking unspecific binding (1% BSA in PBS) appropriate dilutions of sera from mice injected with the original human PCSK9 sequence aa 153-162 or aa 153-165 (SEQ ID No. 3) were added and incubated for approximately 1 hour. Subsequently, detection with anti-mouse IgG antibodies was performed. ABTS was used as substrate. OD measurements were performed at 405 nm and titers were defined as the dilution of the serum where 50% of the ODmax is reached.

Substance | % Competition compared to the related control group [1] [%] | Median Titer Binding ELISA (ODmax/2) [2]
3 (ERTKSDPGAQHREF) [compound 3] | 0 | 
4 (ITELSRWPNI) [compound 4] | 0 | 
5 (TIPWNLERIT; Artificial Sequence, Mimotope) [compound 5] | 52 | 198,000
6 (VIPWNLERIT; Artificial Sequence, Mimotope) [compound 6] | 51 | 12,000
7 (AIPWNLERIT; Artificial Sequence, Mimotope) [compound 7] | 88 | 199,000
8 (SVPWNLERIT; Artificial Sequence, Mimotope) [compound 8] | 62 | 197,000
9 (SQPWNLERIT; Artificial Sequence, Mimotope) [compound 9] | 30 | 149,000
10 (SAPWNLERIT; Artificial Sequence, Mimotope) [compound 10] | 76 | 131,000
11 (SGPWNLERITPPR; Artificial Sequence, Mimotope) [compound 11] | 54 | 81,000
12 (SITWNLERIT; Artificial Sequence, Mimotope) [compound 12] | 62 | 124,000
13 (SIAWNLERIT; Artificial Sequence, Mimotope) [compound 13] | 78 | 147,000
14 (SIVWNLERITPPR; Artificial Sequence, Mimotope) [compound 14] | 78 | 146,000
15 (SIPFNLERIT; Artificial Sequence, Mimotope) [compound 15] | 15 | 42,000
16 (SIPANLERIT; Artificial Sequence, Mimotope) [compound 16] | 8 | 22,000
17 (SIPGNLERIT; Artificial Sequence, Mimotope) [compound 17] | 0 | 21,000
18 (SIPHNLERIT; Artificial Sequence, Mimotope) [compound 18] | 0 | 23,000
19 (SIPDNLERIT; Artificial Sequence, Mimotope) [compound 19] | 3 | 23,000
20 (SIPSNLERIT; Artificial Sequence, Mimotope) [compound 20] | 7 | 22,000
21 (SIPWSLERIT; Artificial Sequence, Mimotope) [compound 21] | 73 | 147,000
22 (SIPWALERIT; Artificial Sequence, Mimotope) [compound 22] | 75 | 157,000
23 (SIPWQLERITPPR; Artificial Sequence, Mimotope) [compound 23] | 79 | 224,000
24 (SIPWDLERITPPR; Artificial Sequence, Mimotope) [compound 24] | 74 | 231,000
25 (SIPWNAERIT; Artificial Sequence, Mimotope) [compound 25] | 73 | 156,000
26 (SIPWNGERIT; Artificial Sequence, Mimotope) [compound 26] | 52 | 56,000

Substance | % Competition compared to the related control group [1] [%] | Median Titer Binding ELISA (ODmax/2) [2]
27 (SIPWNYERIT; Artificial Sequence, Mimotope) [compound 27] | 76 | 115,000
28 (SIPWNDERIT; Artificial Sequence, Mimotope) [compound 28] | 71 | 131,000
29 (SIPWNFERITPPR; Artificial Sequence, Mimotope) [compound 29] | 79 | 186,000
30 (SIPWNVERITPPR; Artificial Sequence, Mimotope) [compound 30] | 78 | 197,000
31 (SIPWNLARIT; Artificial Sequence, Mimotope) [compound 31] | 13 | 34,000
32 (SIPWNLDRITPPR; Artificial Sequence, Mimotope) [compound 32] | 53 | 151,000
33 (SIPWNLEKIT; Artificial Sequence, Mimotope) [compound 33] | 19 | 59,000
34 (SIPWNLEAIT; Artificial Sequence, Mimotope) [compound 34] | 15 | 54,000
35 (SIPWNLEDIT; Artificial Sequence, Mimotope) [compound 35] | 13 | 48,000
36 (SIPWNLERLT; Artificial Sequence, Mimotope) [compound 36] | 76 | 192,000
37 (SIPWNLERTT; Artificial Sequence, Mimotope) [compound 37] | 73 | 177,000
38 (SIPWNLERAT; Artificial Sequence, Mimotope) [compound 38] | 77 | 149,000
39 (SIPWNLERIL; Artificial Sequence, Mimotope) [compound 39] | 56 | 168,000
40 (SIPWNLERIQ; Artificial Sequence, Mimotope) [compound 40] | 64 | 181,000
41 (SIPWNLERIA; Artificial Sequence, Mimotope) [compound 41] | 80 | 189,000
42 (SIPWNLERISPPR; Artificial Sequence, Mimotope) [compound 42] | 79 | 719,000
43 (SIPWNLERITAPR; Artificial Sequence, Mimotope) [compound 43] | 70 | 226,000
44 (SIPWNLERITSPR; Artificial Sequence, Mimotope) [compound 44] | 68 | 153,000
45 (SIPWNLERITPAR; Artificial Sequence, Mimotope) [compound 45] | 74 | 184,000
46 (SIPWNLERITPVR; Artificial Sequence, Mimotope) [compound 46] | 75 | 265,000
47 (SIPWNLERITPTR; Artificial Sequence, Mimotope) [compound 47] | 73 | 155,000
48 (SIPWNLERITPNR; Artificial Sequence, Mimotope) [compound 48] | 70 | 186,000
49 (SIPWNLERITPPA; Artificial Sequence, Mimotope) [compound 49] | 65 | 163,000
